Four compounds from US12286488B2, “Anti-dinitolmide monoclonal antibodies and hybridoma cell strain that secretes them” (JIANGNAN UNIVERSITY, priority 2020, dated 2025) can be followed below.

Converted amounts (≈) assume the structure as drawn.

This assay deals with anti-dinitolmide monoclonal antibody secreted by hybridoma cell strain DAS3H10. The assay is described as follows: indirect competitive ELISA (IC50 and cross-reaction rates). Type of assay: binding, mouse. The note with it: for IC50: dinitolmide monoclonal antibody; for cross-reaction rates: relative to dinitolmide. The source says:
The basic steps for the preparation of the DAS3H10 cell line provided by the invention are: • (1) Preparation and identification of immunogen: 3,5-dinitro-2-methylbenzoic acid, which is a structure analogue of dinitolmide, was used as a raw material and connected to the amino group of the protein carrier with the activated ester method. After the reaction was completed, the complete immunogen and the unconnected small molecule hapten were separated by dialysis. And the complete immunogen was identified by UV-VIS absorption spectrometry. • (2) Immunization of mice: BALB/c mice aged 6-8 weeks were selected for immunization. The immunogen, which was emulsified with […], was injected to the BALB/c mice by subcutaneous injection at multiple points. The Faust complete adjuvant was used for the first immunization, the Faust incomplete adjuvant was used for the booster immunization, and the commixture of the immunogen and normal saline was used for the sprint immunization by intraperitoneal injection. Each immunization dose was half of the previous immunization dose, and the interval between each immunization was three weeks. After the third immunization, blood collection was collected every one week for the detection of serum titer and inhibition. • (3) Cell fusion and cell line establishment: the cell fusion of mouse spleen cells and mouse myeloma cells was accomplished by polyethylene glycol (PEG 2000). After cultured culturing in HAT medium, there was detection of positive cells wells by indirect ELISA, and further detection of the inhibition effect of positive cell wells by indirect competition ELISA. Positive cell wells with the best inhibition effect were subcloned three times by limiting dilution assay, and finally the hybridoma cell strain DAS3H10 was finally screened. • (4) Identification of the properties of hybridoma cell strains: the identification of hybridoma cell strains were determined by HRP, and IC50, cross-reaction rates and affinity were determined by ELISA.
4. Cell screening and cell line establishment: during the cell fusion, half of the RPMI-1640 screening medium of the fusion cell was changed on the 3rd day, and all was replaced by the RPMI-1640 screening medium with 20% fetal bovine serum, 1% of 100×HT on the fifth day. The cell supernatant was used for screening on the 7th day, which is divided into two steps: the first step is to screen out the positive cell wells with indirect ELISA, the second step is to detect the inhibition effect of positive cell wells by indirect competition ELISA with dinitolmide used as the standard substance. The cell wells with good inhibition effect of dinitrotolamine were selected to be subcloned with finite dilution assay, and the inhibition effect was detected in the same way. This process was repeated three times to obtain the cell line.
6. […] Each sample was added to 3 wells. […]
On the technique in general: ELISA stands for enzyme-linked immunosorbent assay.

Broadly, the IC50 is the concentration needed to halve the response being measured.

Turning to `N#CC(c1ccc(Cl)cc1)c1c(Cl)cc(-n2ncc(=O)[nH]c2=O)cc1Cl` (centres unmarked) [dikjuli], the half-inhibitory concentration (IC50) was greater than 0.5 µg/mL and the cross-reaction rates is reported as less than 5%.
Take `Cc1c(C(N)=O)cc([N+](=O)[O-])cc1[N+](=O)[O-]` [dinitolmide]: the half-maximal inhibitory concentration (IC50) was found to be 0.00901 µg/mL (≈ 0.04 µM) and the cross-reaction rates amounted to 100%.
`Cc1cc(-n2c(=O)[nH]c(=O)n(C)c2=O)ccc1Oc1ccc(SC(F)(F)F)cc1` [torquoly] came in with an IC50 greater than 0.5 µg/mL and a cross-reaction rates of less than 5%.
nicarbazine: the half-maximal inhibitory concentration (IC50) is greater than 0.5 µg/mL and the cross-reaction rates is less than 5%.
